Paper PMC8112388 (Inorganic chemistry, 2021)

Biological target: human serum albumin (HSA) (Homo sapiens, UniProt P02768)
Test: proton relaxation enhancement titration
Assay type: binding
Settings: read-out: KD(HSA)

human serum albumin (HSA), sequence (P02768 25-609): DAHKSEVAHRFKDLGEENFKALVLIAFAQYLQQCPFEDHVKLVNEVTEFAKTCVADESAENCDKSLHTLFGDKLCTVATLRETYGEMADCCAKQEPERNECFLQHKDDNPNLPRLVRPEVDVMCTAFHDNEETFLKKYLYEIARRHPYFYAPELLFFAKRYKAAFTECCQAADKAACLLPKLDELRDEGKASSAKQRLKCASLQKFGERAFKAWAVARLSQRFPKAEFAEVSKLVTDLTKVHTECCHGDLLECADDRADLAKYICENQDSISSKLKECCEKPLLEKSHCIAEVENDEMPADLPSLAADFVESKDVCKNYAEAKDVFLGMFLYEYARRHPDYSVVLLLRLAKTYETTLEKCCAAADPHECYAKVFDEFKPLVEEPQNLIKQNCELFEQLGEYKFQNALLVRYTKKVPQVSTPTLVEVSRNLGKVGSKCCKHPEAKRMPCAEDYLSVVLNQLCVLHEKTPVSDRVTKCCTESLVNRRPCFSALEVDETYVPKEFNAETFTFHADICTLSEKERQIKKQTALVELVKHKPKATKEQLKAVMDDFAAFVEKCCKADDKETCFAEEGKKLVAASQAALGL

Kd: 28 ± 1 µM
Substance: MnPyC3A–BPEN [Mn(3)]
